From EP2365091A1, “Method of screening for HtrA protease inhibitors useful for prophylaxis and therapy of a bacterial infection” (Paul-Ehrlich-Institut, priority 2010, dated 2011)
Entries after “also recorded” stand apart in the source; their conditions may differ.

Legend:
HtrA = experiment: In vitro cleavage of recombinant E-Cadherin by HtrA (Western blot); type: biochemical, Helicobacter pylori; details: 100 ng recombinant E-Cadherin, 100 ng/µl HtrA, 16 h
Procedure: (§1) For in vitro cleavage studies, recombinant E-Cadherin, EGFR and JAM chimera, IgA or Casein, (R&D Systems, Wiesbaden, Germany) were incubated with HtrA^wt, HtrA^S205A or MMP7 in 50 mM HEPES (pH 7.4) at 37°C for 16 h. Where indicated, HHI or MMP inhibitor II were added. Reactions were stopped by boiling in Laemmli buffer, followed by 8% SDS-PAGE and Western blotting.

MMP-7 = molecular target: T1, MMP-7 (Homo sapiens, UniProt P09237); experiment: In vitro cleavage of recombinant E-Cadherin by MMP-7 (Western blot); type: biochemical; details: 5 ng/µl MMP-7, 16 h, 100 µM HHI (Fig. 11E)
T1 sequence (P09237 95-267): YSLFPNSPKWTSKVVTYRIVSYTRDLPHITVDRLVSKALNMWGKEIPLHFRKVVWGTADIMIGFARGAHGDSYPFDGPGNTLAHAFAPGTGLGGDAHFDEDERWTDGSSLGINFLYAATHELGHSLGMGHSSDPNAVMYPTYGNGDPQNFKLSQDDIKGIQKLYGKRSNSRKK
Procedure: as §1

MKN-28 cells [1] = experiment: Hp-induced ectopic E-Cadherin shedding in infected cells (Western blot of supernatants and lysates); type: cell-based, human; details: 100 µM HHI
Procedure: The human gastric adenocarcinoma cell line MKN-28 was grown in RPMI1640 medium (Biochrom, Berlin, Germany) and human breast cancer cells (MCF-7) in DMEM medium (Biochrom) containing 4 mM glutamine (Invitrogen, Karlsruhe, Germany]), and 10% FCS (Biowest, Nuaillé, France) in a humidified 5% CO2 (MKN-28) or 10% CO2 (MCF-7) atmosphere at 37°C. Cells were seeded in tissue culture plates 48 hours before infection and grown to confluence. 1-2 h hours prior to infection, medium was replaced by fresh serum-free media. Where indicated, cells were incubated with indicated concentrations of HHI or MMP inhibitor II (blocks MMP1, MMP3, MMP7 and MMP9) (Calbiochem, Merck , Darmstadt, Germany).
Hp strains Hp26695 and P12 were cultured on agar plates containing 10% horse serum under microaerophilic conditions at 37°C for 48 hours. For infection, bacteria were harvested in PBS Dulbecco's medium, pH 7.4, added to the host cells at a multiplicity of infection (MOI) of 50 or 100 for the indicated time periods and monitored using an inverse phase-contrast microscope (model TS 100, INTAS). To quantify bacteria translocating through cellular monolayers, MKN-28 cells were grown to confluence on filters prior to infection with Hp for 48 h. Translocating Hp were cultured and CFU were counted. All experiments were repeated 3-4 times. […]

Hp [2] = experiment: Hp adherence and viability, colony forming units after infection of MKN-28 cells; type: cell-based, Helicobacter pylori
Procedure: For secretome analysis, Hp was grown in protein-free liquid brain heart infusion (BHI) medium (Merck) supplemented with β-cyclodextrin for 48 hours (Bumann et al., 2002). Supernatants of Hp BHI cultures were sterilized by filtration. Lysates of Hp were obtained by sonication in PBS containing 0.1% Triton X-100. To quantify colony forming units (CFU) of Hp, cells were infected with Hp in the presence or absence of HHI. After 16-24 h cells were washed twice with PBS, harvested in BHI supplemented with β-cyclodextrin and seeded on Hp plates. After 72 h, colonies were counted.

MKN-28 cells [3] = experiment: Cell aggregation assay; type: cell-based, human; details: 50 ng/µl HtrAwt plus 100 µM HHI (Fig. 4E)
Procedure: For cell aggregation assays, 2 x 10^5 cells were trypsinized and seeded into BSA-coated 24-well plates, each well containing 500 µl of cell aggregation buffer (10 mM HEPES (pH 7.4), 150 mM NaCl, 0.7 mM CaCl2, 1% BSA, 0.01% trypsin). After stimulation at 37°C for 30 min on a rocking platform, cells were fixed in 500 µl of 4% paraformaldehyde for 20 min and observed using an inverse phase-contrast microscope.

MCF-7 = experiment: In-situ immunofluorescence of E-Cadherin in Hp-infected cells; type: cell-based, human; details: MCF-7, Hp 16 h, 100 µM HHI (Fig. 5A)
Procedure: (§2) For immunofluorescence staining, cells were grown for 24 h on glass coverslips, then fixed (4% paraformaldehyde in PBS), and permeabilized (0.2% Triton X-100 in PBS). Immunostaining was performed using anti-E-Cadherin (cl. 36 detects the intracellular domain, BD Biosciences), anti-E-Cadherin (HecD-1 detects the extracellular domain), ZO-1 (Invitrogen), anti-CagA (Immunological and Biochemical Testsystems GmbH, Reutlingen, Germany), anti-β1-integrin and anti-Hp. Secondary antibodies were labeled with Alexa-488 or Alexa-546 (Invitrogen). Filamentous actin was detected with Alexa Fluor 546-conjugated phalloidin (Invitrogen). For nuclei staining, 4',6-diamin-2-phenylin-dol-dihydrochloride (DAPI, Roche) was used as recommended by the manufacturer's instructions. Samples were analyzed by confocal laser scanning microscopy using a Zeiss LSM 510 Meta confocal microscope. Images were further processed using Corel Photopaint.

MKN-28 cells [4] = experiment: Co-immunoprecipitation of β-Catenin and p120ctn in Hp-infected cells; type: cell-based, human; details: Hp 6 h, 100 µM HHI (Fig. 5B)
Procedure: Interaction between β-Catenin and p120^ctn was analyzed by co-immunoprecipitation studies. Cells were lysed and β-Catenin and p120^ctn were immunoprecipitated from cell lysates. Immobilized protein complexes were washed three times with lysis buffer, boiled in Laemmli buffer, separated by SDS-PAGE, and blotted on membranes.

TCF/LEF1 = experiment: TOPflash/FOPflash luciferase reporter gene experiment; type: cell-based, human; details: MKN-28, Hp 24 h, 50 µM HHI (Fig. 5C)
Procedure: MKN-28 cells were cultured in 24-well plates and grown to 60% confluence. Cells were transfected with 100 ng TOPflash or 100 ng FOPflash (Upstate, Millipore, Bad Schwalbach/Taunus, Germany) and 4 ng phRL Null. As a positive control, cells were co-transfected with 100 ng β-Catenin (β-Cat^S33A) or empty vector for 12 h using Gene Juice transfection reagent (Novagen, Merck, Darmstadt, Germany) as recommended by the manufacturer's instructions. Eighteen hours after transfection, cells were infected with Hp at an MOI of 50, or left untreated. In further approaches, cells were incubated with 50 ng/µl HtrA^wt or HtrA^S205A mutant. After 24 h, cells were harvested in 100 µl reporter lysis buffer (Promega) and luciferase activity was determined in a dual channel luminometer. Results were normalized for transfection efficiency of cotransfected renilla luciferase plasmid.

Hp [5] = experiment: Hp translocation through the intercellular space of confluent monolayers (confocal microscopy, filter CFU); type: cell-based, Helicobacter pylori
Procedure: Hp strains Hp26695 and P12 were cultured on agar plates containing 10% horse serum under microaerophilic conditions at 37°C for 48 hours. For infection, bacteria were harvested in PBS Dulbecco's medium, pH 7.4, added to the host cells at a multiplicity of infection (MOI) of 50 or 100 for the indicated time periods and monitored using an inverse phase-contrast microscope (model TS 100, INTAS). To quantify bacteria translocating through cellular monolayers, MKN-28 cells were grown to confluence on filters prior to infection with Hp for 48 h. Translocating Hp were cultured and CFU were counted. All experiments were repeated 3-4 times.
as §2, with “For nuclei staining, 4',6-diamin-2-phenylin-dol-dihydrochloride (DAPI, Roche) was used as recommended by the manufacturer's instructions.” left out, “Images were further processed using Corel Photopaint.” left out

CagA = CagA injection and phosphorylation in infected monolayers (Western blot); type: cell-based, Helicobacter pylori; details: MKN-28 monolayers
Procedure: Cells were harvested in lysis buffer (20 mM Tris-HCl, pH 7.5, 1 mM ETDA, 100 mM NaCl, 1% Triton X-100, 0.5 % sodium deoxycholate, 0.1% SDS, 1 x complete protease inhibitors (Roche, Basel, Switzerland), 1 mM Na3VO4, 1 mM sodium molybdate, 20 mM NaF, 10 mM sodium pyrophosphate, 20 mM β-glycerophosphate) and separated by SDS-PAGE. Proteins were transferred onto PVDF membranes, blocked with RotiBlock (Roth, Karlsruhe, Germany), and probed with anti-E-Cadherin cl. 36 (detects intracellular E-Cadherin domain). To detect CTF1 and CTF2 by Western blots an anti-E-Cadherin polyclonal antibody from Cell Signaling Technologies , Danvers, MA, USA] was used. Quantification of CTF and NTF fragments was performed using the Fusion FX-7 image analyzer and Bio-1D analysis software (Vilber Lourmat Deutschland GmbH, Eberhardzell, Germany). Monoclonal antibodies HecD1 and H-108 against the extracellular domain of E-Cadherin (NTF) were obtained from Calbiochem, Merck, Darmstadt, Germany and Santa Cruz, Santa Cruz, CA, USA, respectively. Expression of Occludin, ZO-1 (Invitrogen), JAM1, β-Catenin, p120^ctn (BD Biosciences, New Jersey, USA), ADAM10, EGFR (Santa Cruz), GAPDH (Abcam, Cambridge, UK), β-Actin (Sigma), CagA (Aalto Bio Reagents Ltd., Dublin, Ireland) was analyzed using specific antibodies. […]

interleukin-8 (IL-8) = experiment: Interleukin-8 (IL-8) ELISA; type: cell-based, human; details: MKN-28, Hp 8 h, 16 h and 36 h, 100 µM HHI (Fig. 12B)
Procedure: Determination of IL-8 release was performed by applying a commercially available IL-8 specific ELISA assay system (Bender Medsystems, eBioscience Inc., San Diegeo, CA, USA). In brief, MKN-28 cells were incubated with Hp 8-36 h. Cell culture supernatants were collected, centrifuged, and stored at -80°C for subsequent IL-8 quantification. The IL-8 release was determined as recommend by the manufacturer's instructions.

β1-integrin = experiment: Confocal microscopy of phospho-CagA and β1-integrin co-localization; type: cell-based; details: Hp-infected cells, preincubation with 100 µM HHI (Fig. 7C)
Procedure: as §2

CCOc1ccc2nc(NC(=O)CSc3nnc(-c4ccc(S(=O)(=O)N5CCCC5)cc4)o3)sc2c1 [HHI]
HHI concentration sufficient to partly block HtrA-mediated E-Cadherin cleavage (HtrA): 10 µM
HHI concentration that blocked cleavage completely (HtrA): 30 µM
MMP7-mediated E-Cadherin cleavage activity (MMP-7): did not affect
secretion of HtrA into the infected cell supernatant (MKN-28 cells [1]; 16 and 24 h (Fig. 4D)): could be excluded
Hp-induced ectopic E-Cadherin cleavage in infected MKN-28 cells (MKN-28 cells [1]; Hp infection 16 and 24 h (Fig. 4D)): clearly inhibited
Hp adherence and Hp viability (Hp [2]; 100 µM HHI (Fig. 11C)): could be excluded; also recorded: not affecting
relative CFU colony forming units (CFU) (Hp [2]; 100 µM HHI, 16 h and 24 h infection, colonies counted after 72 h (Fig. 11C)): no significant difference
E-Cadherin-mediated cell aggregation of HtrAwt-treated cells (MKN-28 cells [3]): did not form aggregates, unless HHI was also added
Hp-induced loss of E-Cadherin-dependent intercellular adhesion (MCF-7): blocks; also recorded: efficiently blocked
loss of β-Catenin in the precipitated p120ctn immunocomplex upon Hp infection (MKN-28 cells [4]): not reverted
Hp-induced luciferase activity (TOP/FOP) (TCF/LEF1): unaffected
Hp invasion through the intercellular space of confluent MKN-28 cells growing on filters (Hp [5]; 100 µM HHI, Hp 48 h, CFU counted, p = 0.01 (Fig. 6B)): significantly inhibited
number of translocating bacteria in intercellular spaces (Hp [5]; MKN-28 monolayers, confocal microscopy, 48 h, 100 µM HHI (Fig. 6A)): greatly reduced
amount of total CagA (CagA; 100 µM HHI preincubation (Fig. 7A)): not altered
injected phospho-CagA in Hp-infected cells (CagA; 100 µM HHI preincubation, 16 h and 24 h (Fig. 7A)): decreased
T4SS-dependent secretion of interleukin-8 (IL-8) of Hp-infected cells (interleukin-8 (IL-8)): unaffected
co-localization of phospho-CagA with β1-integrin at the basolateral membrane (β1-integrin): efficiently prevented
